Values of other authors in patent US8722101B2, “Use of iron(III) complex compounds” (Vifor (International) AG, priority 2005, dated 2014).

Conditions: children with iron-related anaemia; administration for 75 days

Compound: O=S(=O)([O-])[O-].[Fe+2] [iron sulfate]
- improvement in the mental and psychomotor development: did not find any improvement
